Measured values reported in publication PMC12494831, “Discovery of new pyridine 3-carboxylic acid-based pharmacophores as dual anti-inflammatory and anti-hyperglycemic agents” (Scientific Reports, 2025).

How the values were obtained:
[1] = ABTS cation radical scavenging (734 nm); conditions: for IC50: read-out: ABTS IC50±SD
Procedure: (§1) The experimental method principle relies on the degradation of the purple color of the DPPH radical and the blue color reduction of the ABTS cation radical. This is due to consuming the electron or hydrogen radical from the antioxidant (A-H). Both assays were measured at 517 nm and 734 nm, respectively. The distinction of color changes illustrates the potential scavenging activity of the inhibitor molecules in terms of hydrogen-donating proficiency. From this, we can conclude the anti-oxidant efficacy.
In brief, 7.0 mM ABTS in H2O and 2.5 mM potassium persulfate (1:1) were shaken well to generate ABTS cation radicals and kept in the dark at RT for 15–20 h before it is used for the experiment. After, the radical was mixed with the synthesized molecules at different concentrations (20 µM to 100 µM). The resultant solution was measured for absorbance at 734 nm. Ascorbic acid is the positive control for this experiment.1 [drawing 1]

[2] = test system: RAW macrophage cells (RAW 264.7); experiment: MTT cell viability assay; type: cell-based; conditions: for MTT assay Average OD: control average OD 0.924
Procedure: The toxicity of the molecule was investigated by the MTT cell viability assay employing RAW macrophage cells. For this study, two lead compounds, 2b and 2e, were screened based on the in vitro results. […] (The OD values in Tables S6 and S7)
The MTT ((3-(4,5-Dimethylthiazol-2-yl)-2,5-Diphenyltetrazolium Bromide)) assay was employed to determine viability for the synthesized potent compounds 2b and 2e; the cell viability results portray the compounds’ cytotoxicity. The assay was conducted on RAW macrophage cells (RAW 264.7) with various dilutions of 2b and 2e (10, 20, 30, 40, and 50 µM). The results were confirmed with a control.

human RBC = experiment: Anti-inflammatory activity: hypotonic solution-induced human RBC hemolysis (560 nm); type: cell-based; conditions: for IC50: induced human RBC hemolysis, read-out: Inflammatory IC50±SD
Procedure: All synthesized compounds are validated in human RBC (blood sample); the blood sample was collected from a healthy volunteer in an EDTA tube. The EDTA tube further proceeded with centrifugation at 3000 rpm for 30 min. A supernatant (which contains plasma and leucocytes) solution was isolated, and the obtained RBC (red blood cells) was further treated with Alsever’s reagent. Alsever’s reagent was prepared as follows: sodium citrate (0.8 g, 2.6 mmol), dextrose (2 g, 11.0 mmol), citric acid (0.050 g, […]), and sodium chloride (0.42 g, 7.0 mmol) were solubilized in 100 mL of distilled water. The above mixture was centrifuged for 30 min at 3000 rpm. Then, colloidal blood cells were separated, carefully transferred, and washed with 0.85% of the isosaline solution; this process continued until a clear solution appeared. Employing coagulated RBC and generated human erythrocyte hemolysis, the anti-inflammatory activity and potential of the synthesized entities were evaluated. The tested compounds are prepared at different concentrations for the inhibition activity of inflammation, along with 100 µL of a purified RBC sample utilized. All characterized samples were followed by adding 5.0 mL of trisodium phosphate (10 mM) and 5.0 mL of sodium chloride (5.0 mM) buffer solutions. After the addition of the above mixtures, the test samples are incubated for 15 min at room temperature with RBC and hypotonic mixtures. After incubation, the mixture was centrifuged at 3000 rpm for 15 min. The final supernatant liquid solution was measured at 560 nm using a UV-visible spectrophotometer.3 [drawing 3]

[3] = DPPH radical scavenging (517 nm); conditions: for IC50: read-out: DPPH IC50±SD
Procedure: as §1
Methanolic DPPH solution (0.15 mM) was prepared, and 1.0 mL of DPPH solution was mixed with 3.0 mL of synthesized molecules at different concentrations (20 µM to 100 µM). The mixture was constantly swirled and stored RT for 30 min, followed by absorbance measurement at 517 nm.

α-amylase (EC.3.2.1.1) = molecular target: T1, α-amylase (EC.3.2.1.1) (Homo sapiens, UniProt P04746); experiment: In vitro α-amylase inhibition (starch/DNS, 540 nm); type: biochemical; conditions: for IC50: test concentrations 2-10 µg, read-out: α-Amylase IC50±SD (converted)
T1 sequence (P04746 16-511): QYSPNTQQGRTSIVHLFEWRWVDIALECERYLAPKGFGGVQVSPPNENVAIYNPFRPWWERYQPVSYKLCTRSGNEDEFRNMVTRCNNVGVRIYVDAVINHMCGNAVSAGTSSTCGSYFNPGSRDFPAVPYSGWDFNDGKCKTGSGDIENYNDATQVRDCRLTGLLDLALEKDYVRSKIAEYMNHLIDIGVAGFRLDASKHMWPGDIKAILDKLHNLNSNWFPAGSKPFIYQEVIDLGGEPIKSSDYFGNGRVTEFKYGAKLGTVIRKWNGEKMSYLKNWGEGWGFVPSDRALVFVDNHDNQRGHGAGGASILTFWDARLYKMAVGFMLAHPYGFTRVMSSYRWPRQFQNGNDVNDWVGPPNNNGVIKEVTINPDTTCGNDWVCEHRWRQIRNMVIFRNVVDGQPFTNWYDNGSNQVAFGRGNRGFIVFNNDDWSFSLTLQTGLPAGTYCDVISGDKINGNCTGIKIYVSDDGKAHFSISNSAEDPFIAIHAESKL
Procedure: α-Amylase enzyme and other chemical reagents are used for enzyme inhibitory activity. The characterized compounds are diluted in an analytical grad solvent (DMSO) system at 1 mg/mL solution concentration. The activity reaction of the synthesized analogues on the enzyme was treated at final concentrations of 2 to 10 µg. In the interaction between enzyme and compounds, 10 min incubation was maintained before the inhibitory activity started. The enzyme-receptor inhibition efficiency was calculated and compared with the positive control.
Sodium phosphate buffer 0.2 mM (pH 6.9 with 6 × 10^− 4 M NaCl) in 500 µL enzyme solution (0.5 mg/mL) was taken and incubated with test samples (2–10 µg/mL) at room temperature for 10 min. A starch (1%) solution of 500 µL with phosphate buffer was added to all test inhibitor samples; further, the tubes were incubated for 10 min at 28 °C. The reaction test tubes were incubated for another 5 min in the water bath (100 °C) after the addition of the color reagent dinitro salicylic acid and cooled at room temperature until reached. Finally, 10 mL of distilled water was mixed with each test tube, and the colored mixture was measured at a fixed wavelength of 540 nm. The absorbance without sample solution (blank) and control (buffer and standard drug sample) was measured at 540 nm. The α-amylase inhibition efficiency was validated using the following equation:2 [drawing 2]

SMILES | ABTS Inhibition % ([1]; 20 µM) | ABTS Inhibition % ([1]; 40 µM) | ABTS Inhibition % ([1]; 60 µM) | ABTS Inhibition % ([1]; 80 µM) | ABTS Inhibition % ([1]; 100 µM) | IC50 [1] | inhibition at 20 µM (human RBC) | inhibition at 40 µM (human RBC) | inhibition at 60 µM (human RBC) | inhibition at 80 µM (human RBC) | inhibition at 100 µM (human RBC) | IC50 (human RBC) | DPPH Inhibition % ([3]; 20 µM) | DPPH Inhibition % ([3]; 40 µM) | DPPH Inhibition % ([3]; 60 µM) | DPPH Inhibition % ([3]; 80 µM) | DPPH Inhibition % ([3]; 100 µM) | IC50 [3] | α-Amylase Inhibition % (α-amylase (EC.3.2.1.1); 2 µg) | α-Amylase Inhibition % (α-amylase (EC.3.2.1.1); 4 µg) | also measured
COC(=O)/C=C/c1ccc(OC)c(OC(=O)c2cccnc2)c1 [Compound 2c, 2-Methoxy-5-(3-methoxy-3-oxoprop-1-en-1-yl) phenyl nicotinate] | 58% | 59.7% | 59.8% | 60% | 60% | 20.57 ± 0.13 µM | 48% | 52.9% | 62.5% | 77% | 86% | 27.65 ± 0.2 µM | 32% | 34.9% | 36.1% | 48% | 51.9% | 93.69 ± 0.26 µM | – | – | MTT assay Triplicate values OD1 ([2]; 10 µM): 0.824; MTT assay Triplicate values OD2 ([2]; 10 µM): 0.826; MTT assay Triplicate values OD3 ([2]; 10 µM): 0.819; MTT assay Average OD ([2]; 10 µM): 0.823; MTT assay Triplicate values OD1 ([2]; 20 µM): 0.754; MTT assay Triplicate values OD2 ([2]; 20 µM): 0.753; MTT assay Triplicate values OD3 ([2]; 20 µM): 0.758; MTT assay Average OD ([2]; 20 µM): 0.755; MTT assay Triplicate values OD1 ([2]; 30 µM): 0.689; MTT assay Triplicate values OD2 ([2]; 30 µM): 0.695; MTT assay Triplicate values OD3 ([2]; 30 µM): 0.692; MTT assay Average OD ([2]; 30 µM): 0.692; MTT assay Triplicate values OD1 ([2]; 40 µM): 0.596; MTT assay Triplicate values OD2 ([2]; 40 µM): 0.604; MTT assay Triplicate values OD3 ([2]; 40 µM): 0.606; MTT assay Average OD ([2]; 40 µM): 0.602; MTT assay Triplicate values OD1 ([2]; 50 µM): 0.520; MTT assay Triplicate values OD2 ([2]; 50 µM): 0.525; MTT assay Triplicate values OD3 ([2]; 50 µM): 0.518; MTT assay Average OD ([2]; 50 µM): 0.521
O=C(Oc1ccc2c(c1)OCO2)c1cccnc1 [Compound 2h, Benzo[1,3]dioxol-5-yl nicotinate] | 69% | 71% | 72% | 72.9% | 76.7% | 16.4 ± 0.25 µM | 52% | 63% | 64.7% | 65% | 70% | 21.7 ± 0.24 µM | 84.5% | 85.8% | 86.8% | 87.2% | 87.68% | 12.9 ± 0.19 µM | 74.08% | 73.2% | α-Amylase Inhibition % (α-amylase (EC.3.2.1.1); 6 µg): 72.47%; α-Amylase Inhibition % (α-amylase (EC.3.2.1.1); 8 µg): 70.57%; α-Amylase Inhibition % (α-amylase (EC.3.2.1.1); 10 µg): 70.13%; IC50 (α-amylase (EC.3.2.1.1)): 6.23 µM
COC(=O)C=Cc1ccccc1OC(=O)c1cccnc1 [Compound 2g, 2-(3-Methoxy-3-oxoprop-1-en-1-yl)phenyl nicotinate] | 56% | 57% | 58.1% | 60.2% | 62% | 21.85 ± 0.21 µM | 79% | 80.2% | 80.3% | 85.6% | 86% | 85.56 ± 0.25 µM | 34.94% | 44.35% | 46.41% | 50.02% | 61.07% | 81.81 ± 0.01 µM | 80.38% | 73.64% | α-Amylase Inhibition % (α-amylase (EC.3.2.1.1); 6 µg): 73.06%; α-Amylase Inhibition % (α-amylase (EC.3.2.1.1); 8 µg): 40.84%; α-Amylase Inhibition % (α-amylase (EC.3.2.1.1); 10 µg): 29.72%; IC50 (α-amylase (EC.3.2.1.1)): 4.79 µM
CCOc1ccc2nc(NC(=O)c3cccnc3)sc2c1 [Compound 2k, N-(6-ethoxybenzothiazol-2-yl) nicotinamide] | 37.6% | 41.8% | 46.3% | 47.9% | 55.8% | 88.03 ± 0.17 µM | 48.6% | 55% | 66.8% | 74.5% | 87.5% | 25.86 ± 0.23 µM | 8.89% | 33.34% | 40.65% | 49.83% | 52.31% | 79.62 ± 0.14 µM | 74.81% | 74.52% | α-Amylase Inhibition % (α-amylase (EC.3.2.1.1); 6 µg): 69.98%; α-Amylase Inhibition % (α-amylase (EC.3.2.1.1); 8 µg): 69.69%; α-Amylase Inhibition % (α-amylase (EC.3.2.1.1); 10 µg): 55.63%; IC50 (α-amylase (EC.3.2.1.1)): 5.06 µM
